From patent publication US20100152434A1, “Protein Kinase-binding Nucleosides and Associated Methods” (priority 2007, published 2010)

Columns and labels:
MOLT-4 = conditions: single dose (10 μM)
RXF 393 = conditions: RXF393; single dose (10 μM)
LOX IMVI = conditions: single dose (10 μM)
UO-31 = conditions: single dose (10 μM)
HOP-92 = conditions: single dose (10 μM)

CNC(=O)NC[C@H]1O[C@@H](n2cnc3c(NC(=O)Nc4ccccc4)ncnc32)C2OC(=O)C[C@H]21 (some centres unmarked) [Compound 33, 3′-(Carboxymethyl)-3′,5′-dideoxy-5′-[(N-methylcarbamoyl)amino]-N^6-(N-phenylcarbamoyl)adenosine-2′,3′-lactone]
anticancer activity (GI) (MOLT-4): potent and selective anticancer activities
anticancer activity (GI) (RXF 393): potent and selective anticancer activities
anticancer activity (GI) (LOX IMVI): potent and selective anticancer activities
anticancer activity (GI) (UO-31): potent and selective anticancer activities
anticancer activity (GI) (HOP-92): potent and selective anticancer activities
